Target: T1, CDK2/cyclin E (Homo sapiens, UniProt P24941)
T1 construct: His; made in house; host or cells: Sf9 insect cells (baculovirus)
Assay: CDK2/cyclin E kinase assay (GST-Rb phosphorylation);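 further: enzyme source: His-tagged CDK2/cyclin E co-expressed in Sf9 insect cells via baculovirus, then purified by metal-chelate chromatography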
Format: biochemical
Settings: Table 2, further results for CDK2/cyclin E inhibition; read-out: CDK2/cyclin E

SMILES	IC50 [nM]
Cc1nc(C)c(-c2ccnc(Nc3ccc(O)c(Cl)c3)n2)s1 [Compound 97, 2-Chloro-4-{4-(2,4-dimethyl-thiazol-5-yl)-pyrimidin-2-ylamino}-phenol]	600
Cc1nc(C)c(-c2cc(Br)nc(Nc3cccc([N+](=O)[O-])c3)n2)s1 [Compound 54, {4-Bromo-6-(2,4-dimethyl-thiazol-5-yl)-pyrimidin-2-yl}-(3-nitro-phenyl)-amine]	10
CNc1nc(C)c(-c2ccnc(Nc3cccc(C(F)(F)F)c3)n2)s1 [Compound 90, {4-(4-Methyl-2-methylamino-thiazol-5-yl)-pyrimidin-2-yl}-(3-trifluoromethyl-phenyl)-amine]	200
Cc1nc(C)c(-c2ccnc(Nc3ccc(I)cc3F)n2)s1 [Compound 94, {4-(2,4-Dimethyl-thiazol-5-yl)-pyrimidin-2-yl}-(2-fluoro-4-iodo-phenyl)-amine]	600
Cc1nc(C)c(-c2ccnc(Nc3ccc(O)c([N+](=O)[O-])c3)n2)s1 [Compound 45, 4-{4-(2,4-Dimethyl-thiazol-5-yl)-pyrimidin-2-ylamino}-2-nitro-phenol]	210 ± 160
Cc1nc(C)c(-c2ccnc(Nc3cc(F)cc(F)c3)n2)s1 [Compound 23, (3,5-Difluoro-phenyl)-{4-(2,4-dimethyl-thiazol-5-yl)-pyrimidin-2-yl}-amine]	1700
CNc1nc(C)c(-c2ccnc(Nc3cccc(F)c3)n2)s1 [Compound 103, (3-Fluoro-phenyl)-{4-(4-methyl-2-methylamino-thiazol-5-yl)-pyrimidin-2-yl}-amine]	1200
CNc1nc(C)c(-c2ccnc(Nc3cccc(Cl)c3)n2)s1 [Compound 108, (3-Chloro-phenyl)-{4-(4-methyl-2-methylamino-thiazol-5-yl)-pyrimidin-2-yl}-amine]	800
Cc1nc(C)c(-c2ccnc(Nc3ccc(F)c(F)c3)n2)s1 [Compound 36, (3,4-Difluoro-phenyl)-{4-(2,4-dimethyl-thiazol-5-yl)-pyrimidin-2-yl}-amine]	500 ± 200
CCN(CC)CCOCc1cccc(Nc2nccc(-c3sc(C)nc3C)n2)c1 [Compound 118, {3-(2-Diethylamino-ethoxymethyl)-phenyl}-{4-(2,4-dimethyl-thiazol-5-yl)-pyrimidin-2-yl}-amine]	700
O=[N+]([O-])c1cccc(Nc2nccc(-c3cc(Cl)sc3Cl)n2)c1 [Compound 9, {4-(2,5-Dichloro-thiophen-3-yl)-pyrimidin-2-yl}-(3-nitro-phenyl)-amine]	4700
Cc1nc(N)sc1-c1ccnc(Nc2ccc(O)cc2)n1 [Compound 114, 4-{4-(2-Amino-4-methyl-thiazol-5-yl)-pyrimidin-2-ylamino}-phenol]	1400

System: A549
Assay: 72-h MTT cytotoxicity assay, A549
Format: cell-based, human
Settings: Homo sapiens, A549, read-out: A549
Procedure: Selected compounds from the above examples were subjected to a standard cellular proliferation assay using a range of different human tumour cell lines. Standard 72-h MTT (thiazolyl blue; 3-{4,5-dimethylthiazol-2-yl}-2,5-diphenyltetrazolium bromide) assays were performed (Haselsberger, K.; Peterson, D. C.; Thomas, D. G.; Darling, J. L. Anti Cancer Drugs 1996, 7, 331-8; Loveland, B. E.; Johns, T. G.; Mackay, I. R.; Vaillant, F.; Wang, Z. X.; Hertzog, P. J. Biochemistry International 1992, 27, 501-10). Human tumour cell lines were obtained from the ATCC (American Type Culture Collection, 10801 University Boulevard, Manessas, Va. 20110-2209, USA).

SMILES	IC50 [nM]
CNc1nc(C)c(-c2ccnc(Nc3ccc(O)cc3)n2)s1 [Compound 63, 4-{4-(4-Methyl-2-methylamino-thiazol-5-yl)-pyrimidin-2-ylamino}-phenol]	800 ± 200

Same assay, conditions: Homo sapiens, Table 4, additional data for cytotoxicity assay using the A549 cell line; read-out: A549

SMILES	IC50 [nM]
Cc1nc(C)c(-c2ccnc(Nc3ccc(O)c(Cl)c3)n2)s1 [Compound 97, 2-Chloro-4-{4-(2,4-dimethyl-thiazol-5-yl)-pyrimidin-2-ylamino}-phenol]	4200 ± 400
CNc1nc(C)c(-c2ccnc(Nc3cccc(C(F)(F)F)c3)n2)s1 [Compound 90, {4-(4-Methyl-2-methylamino-thiazol-5-yl)-pyrimidin-2-yl}-(3-trifluoromethyl-phenyl)-amine]	1800 ± 800
Cc1nc(C)c(-c2ccnc(Nc3ccc(I)cc3F)n2)s1 [Compound 94, {4-(2,4-Dimethyl-thiazol-5-yl)-pyrimidin-2-yl}-(2-fluoro-4-iodo-phenyl)-amine]	500 ± 600
Cc1nc(C)c(-c2ccnc(Nc3ccc(O)c([N+](=O)[O-])c3)n2)s1 [Compound 45, 4-{4-(2,4-Dimethyl-thiazol-5-yl)-pyrimidin-2-ylamino}-2-nitro-phenol]	3300 ± 500
COC(=O)c1cc(Nc2nccc(-c3sc(C)nc3C)n2)ccc1Cl [Compound 99, 2-Chloro-5-{4-(2,4-dimethyl-thiazol-5-yl)-pyrimidin-2-ylamino}-benzoic acid methyl ester]	3700 ± 2700
Cc1nc(C)c(-c2ccnc(Nc3ccc(Cl)cc3Cl)n2)s1 [Compound 25, (2,4-Dichloro-phenyl)-{4-(2,4-dimethyl-thiazol-5-yl)-pyrimidin-2-yl}-amine]	1500
Cc1nc(C)c(-c2ccnc(Nc3cccc(Cl)c3)n2)s1 [Compound 7, (3-Chloro-phenyl)-{4-(2,4-dimethyl-thiazol-5-yl)-pyrimidin-2-yl}-amine]	2800
Cc1nc(C)c(-c2ccnc(Nc3cccc(C(F)(F)F)c3)n2)s1 [Compound 26, {4-(2,4-Dimethyl-thiazol-5-yl)-pyrimidin-2-yl}-(3-trifluoromethyl-phenyl)-amine]	3300
Cc1nc(C)c(-c2ccnc(Nc3cccc(N)c3)n2)s1 [Compound 47, N-{4-(2,4-Dimethyl-thiazol-5-yl)-pyrimidin-2-yl}-benzene-1,3-diamine]	1800 ± 1400
CNc1nc(C)c(-c2ccnc(Nc3ccc(F)c(F)c3)n2)s1 [Compound 104, (3,4-Difluoro-phenyl)-{4-(4-methyl-2-methylamino-thiazol-5-yl)-pyrimidin-2-yl}-amine]	4900 ± 2500
CNc1nc(C)c(-c2ccnc(Nc3cccc(O)c3)n2)s1 [Compound 85, 3-{4-(4-Methyl-2-methylamino-thiazol-5-yl)-pyrimidin-2-ylamino}-phenol]	400
Cc1nc(-c2ccccc2)sc1-c1ccnc(Nc2ccc(F)c(F)c2)n1 [Compound 59, (3,4-Difluoro-phenyl)-{4-(4-methyl-2-phenyl-thiazol-5-yl)-pyrimidin-2-yl}-amine]	22000 ± 21000
Clc1cccc(Nc2nccc(-c3cc(Cl)sc3Cl)n2)c1 [Compound 4, (3-Chloro-phenyl)-{4-(2,5-dichloro-thiophen-3-yl)-pyrimidin-2-yl}-amine]	16000 ± 11000
Cc1nc(C)c(-c2ccnc(NS(=O)(=O)c3cccc([N+](=O)[O-])c3)n2)s1 [Compound 42, N-{4-(2,4-Dimethyl-thiazol-5-yl)-pyrimidin-2-yl}-3-nitro-benzenesulfonamide]	56000
Cc1nc(C)c(-c2cc(-c3ccc(O)cc3)nc(Nc3ccc(F)cc3)n2)s1 [Compound 70, 4-{6-(2,4-Dimethyl-thiazol-5-yl)-2-(4-fluoro-phenylamino)-pyrimidin-4-yl}-phenol]	3000 ± 1000
Cc1nc(C)c(-c2ccnc(Nc3ccccc3C(F)(F)F)n2)s1 [Compound 27, {4-(2,4-Dimethyl-thiazol-5-yl)-pyrimidin-2-yl}-(2-trifluoromethyl-phenyl)-amine]	3800
Clc1cc(-c2ccnc(Nc3ccccc3Cl)n2)c(Cl)s1 [Compound 2, (2-Chloro-phenyl)-{4-(2,5-dichloro-thiophen-3-yl)-pyrimidin-2-yl}-amine]	41000 ± 8000
CCOC(=O)c1cccc(Cl)c1Nc1nccc(-c2sc(C)nc2C)n1 [Compound 93, 3-Chloro-2-{4-(2,4-dimethyl-thiazol-5-yl)-pyrimidin-2-ylamino}-benzoic acid ethyl ester]	1100 ± 1000
Cc1nc(C)c(-c2ccnc(Nc3cccc(O)c3)n2)s1 [Compound 40, 3-{4-(2,4-Dimethyl-thiazol-5-yl)-pyrimidin-2-ylamino}-phenol]	300
COc1ccc(Nc2nccc(-c3sc(C)nc3C)n2)c(O)c1 [Compound 95, 2-{4-(2,4-Dimethyl-thiazol-5-yl)-pyrimidin-2-ylamino}-5-methoxy-phenol]	50 ± 30
Cc1nc(C)c(-c2ccnc(Nc3cccc(F)c3)n2)s1 [Compound 35, {4-(2,4-Dimethyl-thiazol-5-yl)-pyrimidin-2-yl}-(3-fluoro-phenyl)-amine]	4200
Clc1ccc(Nc2nccc(-c3cc(Cl)sc3Cl)n2)cc1 [Compound 3, (4-Chloro-phenyl)-{4-(2,5-dichloro-thiophen-3-yl)-pyrimidin-2-yl}-amine]	5000 ± 4000
COc1cc(-c2cc(-c3sc(C)nc3C)nc(Nc3ccc(F)cc3)n2)cc(OC)c1O [Compound 69, 4-{6-(2,4-Dimethyl-thiazol-5-yl)-2-(4-fluoro-phenylamino)-pyrimidin-4-yl}-2,6-dimethoxy-phenol]	12000 ± 5000
Cc1nc(C)c(-c2ccnc(Nc3ccccc3I)n2)s1 [Compound 32, {4-(2,4-Dimethyl-thiazol-5-yl)-pyrimidin-2-yl}-(2-iodo-phenyl)-amine]	23000
Cc1cc(-c2ccnc(Nc3ccccc3Cl)n2)c(C)s1 [Compound 15, (2-Chloro-phenyl)-{4-(2,5-dimethyl-thiophen-3-yl)-pyrimidin-2-yl}-amine]	6000
COC(=O)c1ccc(Nc2nccc(-c3sc(C)nc3C)n2)cc1Cl [Compound 101, 2-Chloro-4-{4-(2,4-dimethyl-thiazol-5-yl)-pyrimidin-2-ylamino}-benzoic acid methyl ester]	900 ± 200
Cc1nc(C)c(-c2ccnc(Nc3cc(Cl)cc(Cl)c3)n2)s1 [Compound 24, (3,5-Dichloro-phenyl)-{4-(2,4-dimethyl-thiazol-5-yl)-pyrimidin-2-yl}-amine]	5000
CCOC(=O)c1cc(Nc2nccc(-c3sc(C)nc3C)n2)ccc1Cl [Compound 92, 2-Chloro-5-{4-(2,4-dimethyl-thiazol-5-yl)-pyrimidin-2-ylamino}-benzoic acid ethyl ester]	4400 ± 3000
Cc1nc(C)c(-c2ccnc(Nc3ccc(O)cc3)n2)s1 [Compound 41, 4-{4-(2,4-Dimethyl-thiazol-5-yl)-pyrimidin-2-ylamino}-phenol]	20
Cc1nc(C)c(-c2cc(-c3ccc(C(F)(F)F)cc3)nc(Nc3ccc(Cl)cc3)n2)s1 [Compound 65, (4-Chloro-phenyl)-{4-(2,4-dimethyl-thiazol-5-yl)-6-(4-trifluoromethyl-phenyl)-pyrimidin-2-yl}-amine]	55000 ± 50000

Same assay, conditions: Table 4, additional data for cytotoxicity assay using the A549 cell line; read-out: A549

SMILES	IC50 [nM]
Cc1nc(C)c(-c2cc(-c3ccccc3)nc(Nc3cccc([N+](=O)[O-])c3)n2)s1 [Compound 57, {4-(2,4-Dimethyl-thiazol-7-yl)-6-phenyl-pyrimidin-2-yl}-(3-nitro-phenyl)-amine]	5200 ± 400
C=CCNc1nc(C)c(-c2ccnc(Nc3cccc([N+](=O)[O-])c3)n2)s1 [Compound 91, {4-(2-Allylamino-4-methyl-thiazol-5-yl)-pyrimidin-2-yl}-(3-nitro-phenyl)-amine]	22100 ± 200

From patent publication US6699854B2, “Anti-cancer compounds” (Cyclacel Limited, priority 2000, dated 2004)
